Consider 1 molecule from patent publication US20230088704A1, “A PHARMACEUTICAL COMBINATION FOR THE TREATMENT OF A CANCER” (ABILITY PHARMACEUTICALS S.L., priority 2020, published 2023).

Data set [1] deals with LA1-5S cells. Put plainly: Cell viability (crystal violet), ABTL0812 with temozolomide. The note with it: ABTL0812 40 μM + temozolomide 500, 1000, 1500 μM; 48 hours; 0.5% FBS. It counts as cell-based. As for the experimental part: (§1) Methods: LA1-5S and SK-N-BE(2) cells were incubated with increasing concentrations of temozolomide (500 μM, 1000 μM and 1500 μM), and subIC50 fixed concentrations of ABTL0812. (30 μM for SK-N-BE(2) and 40 μM for LA1-5S). Cells were treated for 48 hours in IMDM with 0.5% FBS. Cell viability was evaluated by crystal violet assay. Different doses were assessed in six replicates and the results shown are the average of two independent experiments. Statistical analyses were performed according to the T-Test principle with GraphPad Prism® 5.0 software.

For a further data set, the system named is SK-N-BE(2) cells. Described as above. The class given is cell-based. The note with it: ABTL0812 30 μM + temozolomide 500, 1000, 1500 μM; 48 hours; 0.5% FBS. As for the experimental part:
as §1

The test system of data set [2] is LA1-5S cells. The data set is described as follows: Cell viability (crystal violet), ABTL0812 with cyclophosphamide. It counts as cell-based. The note with it: ABTL0812 30 μM + cyclophosphamide 1, 1.5, 2 μM; 72 hours. As for the experimental part:
Methods: LA1-5S cells were incubated with increasing concentrations of cyclophosphamide (1 μM, 1.5 μM and 2 μM) and a subIC50 fixed concentration of ABTL0812 (30 μM). Cells were treated for 72 hours in IMDM with 0.5% FBS. Cell viability was evaluated by crystal violet assay. Data is presented as mean±SEM of three independent experiments. Statistical analyses were performed according to the T-Test principle with GraphPad Prism® 5.0 software (*p<0.05; **p<0.01; ***p<0.001).

Data set [3] deals with human immortalized THP1 macrophages and human primary macrophages. Put plainly: Secretome of THP1 and primary macrophages, cytokine antibody array. It counts as cell-based. As for the experimental part:
Methods: Whole blood was collected from healthy donors, and circulating monocytes were purified using immunomagnetic separation. Monocytes were selected using anti-CD14 antibodies bound to magnetic beads, which were retained in the magnetic column and further eluted for culturing in vitro. Monocytes were differentiated to macrophages incubating with M-CSF1 at 20 ng/mL for 7 days. Once primary monocytes were differentiated to macrophages, these were polarized to M1 by incubation with LPS for 6 or 24 hours in the presence of ABTL0812 (50 or 100 μM). In parallel, differentiated macrophages were polarized to M2 by incubation with IL-4 and IL-13 for 24 hours in the presence of ABTL0812 (50 μM). THP-1 monocytes growing in suspension were differentiated to macrophages by incubation with PMA for 24 hours, inducing their attachment to the plates. Once THP-1 were differentiated to macrophages, these were polarized to M1 by incubation with LPS for 6 or 24 hours in the presence of ABTL0812 (50 μM). In parallel, differentiated macrophages were polarized to M2 by incubation with IL-4 and IL-13 for 24 hours in the presence of ABTL0812 (50 μM). The culture media from ABTL0812 treated M1, M2 and differentiated macrophages (M0) were incubated using the RayBio C-Series Human Cytokine Antibody Array C3 (RayBiotec). Culture media was incubated with a PVDF (Polyvinylidene fluoride) membrane containing antibodies against 42 different cytokines. After incubation of culture media, the membrane was incubated with secondary antibodies and further developed using HRP (Horseradish peroxidase) substrate.

Another data set deals with LLC1 cells. The data set is described as follows: Syngeneic lung cancer model, subcutaneous LLC1, survival. The class given is in vivo, C57BL6 mice. The note with it: ABTL0812 oral 120 mg/kg/day, anti-PD1 i.p. 100 ug/dose every three days. As for the experimental part:
C57BL6 mice were injected with 0.25×10^6 LLC1 cells in one flank to induce tumor formation. […] Tumor volume and body weight were monitored 3 times a week. End point criteria was based on tumors over 800 mm3, or clinical signs of toxicity, distress or suffering indicative of animal euthanasia.

The subject of a further data set is U87MG cells. The data set is described as follows: Human glioblastoma orthotopic xenograft, ABTL0812 with temozolomide. The class given is in vivo, nude mice. The note with it: ABTL0812 oral 240 mg/kg 5 days/week; temozolomide oral 32 mg/Kg first 5 days. As for the experimental part:
Methods: Mice were intra-cerebrally injected with luciferase transfected U87MG cells. Animals were randomized 5 days after cell inoculation and treatments started. ABTL0812 was administered orally at 240 mg/kg 5 days/week; and temozolomide orally at 32 mg/Kg the first 5 days. Tumors were measured by quantification of bioluminescence intensity (BLI) of the region of interest.
A general note: Xenograft models place foreign cells or tissue in a host animal.

Data set [4] has as its system Ishikawa cells. It counts as in vivo. The note with it: ABTL0812 oral 120 mg/kg/day; Doxorubicin 5 mg/kg i.p. once a week. As for the experimental part: Methods: Mice were injected with 4×10^6 Ishikawa cells in one flank to induce tumor formation. […] ABTL0812 was administered by the oral route at 120 mg/kg/day. Doxorubicin 5 mg/kg was administered intra-peritoneally once a week. Tumor volume and body weight were monitored 3 times a week.

Data set [5] concerns endometrial carcinogenesis induced by the deletion of PTEN. The data set is described as follows: Endometrial carcinogenesis induced by PTEN deletion. The note with it: ABTL0812 120 mg/kg daily during 3 weeks. The class given is in vivo, mice. As for the experimental part:
Methods: Mice were injected with tamoxifen to induce PTEN deletion. Three weeks after tamoxifen administration, when animal has developed hyperplasias, animals were administered with ABTL0812 at 120 mg/kg daily or with vehicle during 3 weeks. At that time, vehicle treated animals (6 weeks after tamoxifen injection) develop neoplasias, which are quantified by immunohistochemistry of extracted uterus. After ABTL0812 treatment, animals were sacrificed, uterus extracted in paraffin-embedded for further immunohistochemical analysis by hematoxylin-eosin staining for carcinogenesis evaluation or with anti-CD3 to evaluate T lymphocyte infiltration within tumoral lesions, indicative of tumor microenvironment immunomodulation.

Data set [6] has as its system LA1-5S cells. Put plainly: Cell viability (crystal violet), ABTL0812 with topotecan. It counts as cell-based. The note with it: ABTL0812 30 μM + topotecan 0.5, 1, 2 μM; 72 hours. As for the experimental part:
Methods: LA1-5S cells were incubated with increasing concentrations of topotecan (0.5 μM, 1 μM and 2 μM) and a fixed concentration of ABTL0812 (30 μM). Cells were treated for 72 hours in IMDM with 0.5% FBS. Cell viability was evaluated by crystal violet assay. Data is presented as mean±SEM of three independent experiments. Statistical analyses were performed according to the T-Test principle with GraphPad Prism® 5.0 software.

Data set [7] deals with Ishikawa cells. Put plainly: Human endometrial cancer xenograft, ABTL0812 with bevacizumab. The note with it: ABTL0812 oral 120 mg/kg/day; Bevacizumab ip 100 μg/dose every four days. The class given is in vivo. As for the experimental part:
Methods: Mice were injected with 4×10^6 Ishikawa cells in one flank to induce tumor formation. […] Bevacizumab was administered ip at 100 μg/dose, every four days up to four administration. Tumor volume and body weight were monitored 3 times a week.

Setting [8] is: common in immortalized THP1 cells and in primary macrophages.

Where two headings read alike, the source gives them in different places.

As to `CCCCC/C=C\C/C=C\CCCCCCC(O)C(=O)O` (stereo not shown) [ABTL0812, COOH—CHOH—(CH2)6—(CH═CH—CH2)2—(CH2)3—CH3], in the data set with LA1-5S cells [1], the “temozolomide cytotoxicity on addition of ABTL0812” value is given as “increased temozolomide cytotoxicity”. The “temozolomide cytotoxicity on addition of ABTL0812” value in the data set with SK-N-BE(2) cells was “increased temozolomide cytotoxicity”. In addition, in the data set on LA1-5S cells [2], the “cyclophosphamide cytotoxicity on addition of ABTL0812” value is on record as “significantly increased cyclophosphamide cytotoxicity at 1 μM”. Further, in [3] (ABTL0812 50 or 100 μM), the “secreted IL-1β” value was “upregulation” and the “secreted TNF-α” value is reported as “upregulation”. Also, in [3] (setting [8]), the “secreted CCL7” value is on record as “inhibited”, the “secreted CCL8” value is “inhibited”, the “secreted CCL17” value was “inhibited” and the “secreted CCL22” value is recorded as “inhibited”. Further, in data set [3] (setting [8]), the “secreted IL-10” value is listed as “inhibited”. The molecule further displayed a survival in the data set on LLC1 cells (after 9 days of treatment) of 43%. Further, the survival with LLC1 cells (after 14 days of treatment) turned out to be 15%. For the same molecule, the disease-free survival entry in the data set on U87MG cells is “significantly increased the disease-free survival”. For the same molecule, the tumor volume result with Ishikawa cells [4] is “significantly reduced tumor volume”. For the same molecule, in [5], the “development of endometrial intraepithelial neoplasias (EIN)” value is listed as “significant reduction in the development of endometrial intraepithelial neoplasias”. In data set [5] (anti-CD3 immunohistochemistry), the “CD3 T lymphocyte infiltration” value was “induce the infiltration of CD3 T lymphocytes within tumoral lesions”. In data set [5] (hematoxylin-eosin staining), this molecule returned an animals with hyperplasias of 80%. Moreover, the “topotecan cytotoxicity on addition of ABTL0812” value in the data set with LA1-5S cells [6] was “significantly increased topotecan cytotoxicity”. Besides, the tumor volume result in the data set with Ishikawa cells [7] is “significantly reduced tumor volume”.
